In ChEMBL document CHEMBL5465560, “Selectivity Literature for EUbOPEN Chemogenomic Library” (2024):
Values belong to the molecule of their own block, whether it stands above or below them.

Columns and labels:
[1] = target: Vascular endothelial growth factor receptor 1 (Homo sapiens) (UniProt P17948); experiment: Selectivity interaction (Kinase panel (Eurofins)) EUB0001564a FLT1; conditions: at 1 µM
[2] = target: Interleukin-1 receptor-associated kinase 1 (Homo sapiens) (UniProt P51617); experiment: Selectivity interaction (KinomeScan (DiscoverX)) EUB0000607a IRAK1; conditions: at 10 µM
[3] = target: Death-associated protein kinase 1 (Homo sapiens, UniProt P53355); experiment: Selectivity interaction (KinomeScan (DiscoverX)) EUB0000607a DAPK1; conditions: at 10 µM
Death-associated protein kinase 1, sequence (P53355 whole entry, looked up, canonical isoform): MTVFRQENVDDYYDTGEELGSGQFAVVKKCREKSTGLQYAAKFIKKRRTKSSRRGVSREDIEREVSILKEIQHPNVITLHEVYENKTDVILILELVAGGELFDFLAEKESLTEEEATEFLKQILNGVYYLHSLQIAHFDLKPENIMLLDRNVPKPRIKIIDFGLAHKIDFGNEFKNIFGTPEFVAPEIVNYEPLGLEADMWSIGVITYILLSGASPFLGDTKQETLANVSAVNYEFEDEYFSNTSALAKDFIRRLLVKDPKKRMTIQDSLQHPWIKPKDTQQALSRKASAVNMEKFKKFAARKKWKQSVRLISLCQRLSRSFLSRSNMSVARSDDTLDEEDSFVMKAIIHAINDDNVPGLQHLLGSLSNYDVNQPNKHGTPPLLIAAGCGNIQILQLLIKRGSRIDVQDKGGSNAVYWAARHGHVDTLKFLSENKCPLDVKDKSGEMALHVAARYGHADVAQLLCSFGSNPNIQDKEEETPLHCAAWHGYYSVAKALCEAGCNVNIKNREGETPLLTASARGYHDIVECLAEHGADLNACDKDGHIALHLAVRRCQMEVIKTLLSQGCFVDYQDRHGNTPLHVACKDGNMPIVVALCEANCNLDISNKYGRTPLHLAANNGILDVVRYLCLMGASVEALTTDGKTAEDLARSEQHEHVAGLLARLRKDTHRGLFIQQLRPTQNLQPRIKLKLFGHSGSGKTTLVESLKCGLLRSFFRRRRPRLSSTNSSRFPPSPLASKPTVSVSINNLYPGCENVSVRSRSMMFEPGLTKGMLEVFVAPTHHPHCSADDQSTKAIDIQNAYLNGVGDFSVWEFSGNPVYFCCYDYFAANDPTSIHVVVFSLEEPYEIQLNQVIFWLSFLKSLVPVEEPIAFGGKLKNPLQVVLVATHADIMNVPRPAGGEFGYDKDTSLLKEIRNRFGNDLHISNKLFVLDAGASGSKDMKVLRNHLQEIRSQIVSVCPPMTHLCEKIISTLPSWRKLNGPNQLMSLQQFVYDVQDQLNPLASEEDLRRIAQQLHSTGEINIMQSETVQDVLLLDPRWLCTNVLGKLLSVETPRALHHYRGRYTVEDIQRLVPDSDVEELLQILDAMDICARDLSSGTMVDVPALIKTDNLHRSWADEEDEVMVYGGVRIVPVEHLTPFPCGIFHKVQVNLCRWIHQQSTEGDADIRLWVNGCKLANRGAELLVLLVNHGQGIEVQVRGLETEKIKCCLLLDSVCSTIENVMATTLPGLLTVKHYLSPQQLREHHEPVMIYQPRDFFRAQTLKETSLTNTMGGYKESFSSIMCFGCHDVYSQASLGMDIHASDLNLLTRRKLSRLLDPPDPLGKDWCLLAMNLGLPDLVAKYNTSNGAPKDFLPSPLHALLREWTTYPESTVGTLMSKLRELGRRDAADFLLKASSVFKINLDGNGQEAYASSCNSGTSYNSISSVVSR

[4] = target: Phosphatidylinositol 4,5-bisphosphate 3-kinase catalytic subunit alpha isoform (Homo sapiens) (UniProt P42336); experiment: Selectivity interaction (Kinase panel (Invitrogen)) EUB0000639a PIK3CA; conditions: at 200 nM
Focal adhesion kinase 1 = Focal adhesion kinase 1 (Homo sapiens, UniProt Q05397); experiment: Selectivity interaction (Kinase panel (Invitrogen)) EUB0000639a PTK2; conditions: at 200 nM
Focal adhesion kinase 1, sequence (Q05397 2-1052 limits assumed): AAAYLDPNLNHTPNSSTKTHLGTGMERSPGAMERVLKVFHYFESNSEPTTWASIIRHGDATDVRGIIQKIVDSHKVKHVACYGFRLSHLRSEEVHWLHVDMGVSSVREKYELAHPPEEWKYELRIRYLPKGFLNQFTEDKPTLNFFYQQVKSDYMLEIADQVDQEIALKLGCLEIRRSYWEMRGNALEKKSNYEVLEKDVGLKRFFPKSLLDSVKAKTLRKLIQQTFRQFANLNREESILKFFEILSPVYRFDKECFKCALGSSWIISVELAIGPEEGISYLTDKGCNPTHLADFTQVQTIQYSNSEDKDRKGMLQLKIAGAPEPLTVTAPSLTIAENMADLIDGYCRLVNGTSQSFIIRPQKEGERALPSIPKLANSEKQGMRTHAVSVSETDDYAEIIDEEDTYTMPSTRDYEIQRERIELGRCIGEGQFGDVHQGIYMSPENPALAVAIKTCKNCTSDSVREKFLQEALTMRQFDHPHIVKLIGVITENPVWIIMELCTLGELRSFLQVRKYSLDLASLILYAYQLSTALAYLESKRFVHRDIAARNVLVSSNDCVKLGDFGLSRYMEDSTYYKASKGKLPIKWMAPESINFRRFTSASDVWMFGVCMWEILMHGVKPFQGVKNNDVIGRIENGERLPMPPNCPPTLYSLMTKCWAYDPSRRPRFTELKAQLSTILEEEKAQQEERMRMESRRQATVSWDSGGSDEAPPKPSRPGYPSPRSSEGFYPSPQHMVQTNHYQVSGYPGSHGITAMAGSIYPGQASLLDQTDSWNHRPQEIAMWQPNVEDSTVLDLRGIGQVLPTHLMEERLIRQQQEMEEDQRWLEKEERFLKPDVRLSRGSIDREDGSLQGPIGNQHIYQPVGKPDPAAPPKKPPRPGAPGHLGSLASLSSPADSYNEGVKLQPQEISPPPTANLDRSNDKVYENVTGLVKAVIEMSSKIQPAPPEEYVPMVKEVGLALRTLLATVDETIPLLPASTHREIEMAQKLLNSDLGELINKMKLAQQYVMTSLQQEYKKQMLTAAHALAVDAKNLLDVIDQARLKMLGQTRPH

[5] = target: Serine/threonine-protein kinase 10 (Homo sapiens) (UniProt O94804); experiment: Selectivity interaction (ActivX KiNativ screen (kinase selectivity in THP-1 cell lysates)) EUB0000639a STK10; assay type: subcellular; conditions: lysate, at 5 µM
[6] = target: Interferon-induced, double-stranded RNA-activated protein kinase (Homo sapiens) (UniProt P19525); experiment: Selectivity interaction (ActivX KiNativ screen (kinase selectivity in THP-1 cell lysates)) EUB0000639a EIF2AK2; assay type: subcellular; conditions: lysate, at 5 µM
Interferon-induced, double-stranded RNA-activated protein kinase (Homo sapiens), sequence (P19525 whole entry): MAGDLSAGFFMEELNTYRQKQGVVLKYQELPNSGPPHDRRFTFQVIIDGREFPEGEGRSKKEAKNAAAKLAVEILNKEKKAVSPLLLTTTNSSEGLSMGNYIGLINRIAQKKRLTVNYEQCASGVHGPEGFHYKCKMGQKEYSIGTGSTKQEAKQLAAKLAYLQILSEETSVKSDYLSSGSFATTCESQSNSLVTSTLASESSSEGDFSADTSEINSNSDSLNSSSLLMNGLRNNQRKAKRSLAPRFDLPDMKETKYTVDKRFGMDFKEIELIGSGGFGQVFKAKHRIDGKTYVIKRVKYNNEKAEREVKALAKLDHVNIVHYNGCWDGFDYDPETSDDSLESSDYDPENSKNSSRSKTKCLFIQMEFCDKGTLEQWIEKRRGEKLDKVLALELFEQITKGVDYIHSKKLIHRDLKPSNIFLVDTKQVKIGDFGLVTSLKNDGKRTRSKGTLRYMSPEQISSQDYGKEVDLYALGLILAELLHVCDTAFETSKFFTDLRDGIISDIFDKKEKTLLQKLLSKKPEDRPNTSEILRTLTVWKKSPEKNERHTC

[7] = target: T1, Mitogen-activated protein kinase kinase kinase 2 (Homo sapiens) (UniProt Q9Y2U5); experiment: Selectivity interaction (KinomeScan (DiscoverX)) EUB0000595a MAP3K2; conditions: at 10 µM
T1 sequence (whole entry): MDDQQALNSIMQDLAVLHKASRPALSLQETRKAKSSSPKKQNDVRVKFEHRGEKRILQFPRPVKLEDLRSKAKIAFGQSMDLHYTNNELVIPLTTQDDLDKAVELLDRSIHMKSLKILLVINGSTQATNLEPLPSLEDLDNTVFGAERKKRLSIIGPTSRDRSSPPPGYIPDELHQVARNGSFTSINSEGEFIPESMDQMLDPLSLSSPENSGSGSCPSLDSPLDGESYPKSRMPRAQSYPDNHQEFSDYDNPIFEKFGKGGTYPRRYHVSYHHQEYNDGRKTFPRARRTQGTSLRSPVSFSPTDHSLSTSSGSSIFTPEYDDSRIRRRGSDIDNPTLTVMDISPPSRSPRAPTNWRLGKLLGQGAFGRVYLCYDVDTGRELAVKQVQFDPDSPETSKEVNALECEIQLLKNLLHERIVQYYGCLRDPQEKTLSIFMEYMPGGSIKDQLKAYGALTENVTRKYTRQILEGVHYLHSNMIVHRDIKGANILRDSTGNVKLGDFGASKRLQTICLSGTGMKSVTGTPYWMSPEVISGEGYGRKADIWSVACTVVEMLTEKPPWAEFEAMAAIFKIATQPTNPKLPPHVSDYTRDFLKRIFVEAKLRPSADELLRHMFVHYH

[8] = target: Serine/threonine-protein kinase B-raf (Homo sapiens) (UniProt P15056); experiment: Selectivity interaction (Kinase panel (DSF assay)) EUB0001558a BRAF
Serine/threonine-protein kinase B-raf (Homo sapiens), sequence (P15056 whole entry): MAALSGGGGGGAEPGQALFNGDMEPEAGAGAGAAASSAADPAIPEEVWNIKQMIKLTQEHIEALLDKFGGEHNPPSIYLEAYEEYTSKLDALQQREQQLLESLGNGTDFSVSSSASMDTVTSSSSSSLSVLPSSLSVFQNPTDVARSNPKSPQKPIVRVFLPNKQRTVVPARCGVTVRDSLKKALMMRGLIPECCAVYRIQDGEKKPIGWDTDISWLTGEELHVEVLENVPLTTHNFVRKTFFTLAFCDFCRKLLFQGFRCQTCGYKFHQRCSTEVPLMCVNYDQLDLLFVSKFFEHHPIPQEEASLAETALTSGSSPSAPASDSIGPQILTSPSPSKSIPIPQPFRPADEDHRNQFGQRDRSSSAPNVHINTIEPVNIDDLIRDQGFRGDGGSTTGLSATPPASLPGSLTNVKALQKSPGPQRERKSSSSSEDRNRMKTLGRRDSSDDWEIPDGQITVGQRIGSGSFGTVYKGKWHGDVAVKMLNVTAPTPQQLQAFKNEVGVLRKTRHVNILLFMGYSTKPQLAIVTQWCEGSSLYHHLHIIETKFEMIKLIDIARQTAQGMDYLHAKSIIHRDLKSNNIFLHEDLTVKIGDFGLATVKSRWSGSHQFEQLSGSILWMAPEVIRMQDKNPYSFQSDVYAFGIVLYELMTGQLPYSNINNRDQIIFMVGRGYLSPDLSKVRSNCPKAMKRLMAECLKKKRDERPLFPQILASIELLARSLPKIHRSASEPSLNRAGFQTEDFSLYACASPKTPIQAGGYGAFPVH

[9] = target: Serine/threonine-protein kinase Nek6 (Homo sapiens) (UniProt Q9HC98); experiment: Selectivity interaction (KinomeScan (DiscoverX)) EUB0000655a NEK6; conditions: at 10 µM
Serine/threonine-protein kinase Nek6 (Homo sapiens), sequence (Q9HC98 whole entry): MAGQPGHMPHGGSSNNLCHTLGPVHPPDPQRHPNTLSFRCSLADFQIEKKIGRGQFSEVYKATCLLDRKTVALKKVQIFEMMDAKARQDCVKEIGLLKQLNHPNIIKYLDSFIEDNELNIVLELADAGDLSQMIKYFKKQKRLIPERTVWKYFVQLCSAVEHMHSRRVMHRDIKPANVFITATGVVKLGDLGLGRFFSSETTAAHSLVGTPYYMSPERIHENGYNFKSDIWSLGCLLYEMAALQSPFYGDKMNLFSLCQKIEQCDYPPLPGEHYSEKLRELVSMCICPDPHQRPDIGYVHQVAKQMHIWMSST

[10] = target: T2, Tyrosine-protein kinase TXK (Homo sapiens) (UniProt P42681); experiment: Selectivity interaction (KinomeScan (DiscoverX)) EUB0001079a TXK; conditions: at 1 µM
T2 sequence (whole entry): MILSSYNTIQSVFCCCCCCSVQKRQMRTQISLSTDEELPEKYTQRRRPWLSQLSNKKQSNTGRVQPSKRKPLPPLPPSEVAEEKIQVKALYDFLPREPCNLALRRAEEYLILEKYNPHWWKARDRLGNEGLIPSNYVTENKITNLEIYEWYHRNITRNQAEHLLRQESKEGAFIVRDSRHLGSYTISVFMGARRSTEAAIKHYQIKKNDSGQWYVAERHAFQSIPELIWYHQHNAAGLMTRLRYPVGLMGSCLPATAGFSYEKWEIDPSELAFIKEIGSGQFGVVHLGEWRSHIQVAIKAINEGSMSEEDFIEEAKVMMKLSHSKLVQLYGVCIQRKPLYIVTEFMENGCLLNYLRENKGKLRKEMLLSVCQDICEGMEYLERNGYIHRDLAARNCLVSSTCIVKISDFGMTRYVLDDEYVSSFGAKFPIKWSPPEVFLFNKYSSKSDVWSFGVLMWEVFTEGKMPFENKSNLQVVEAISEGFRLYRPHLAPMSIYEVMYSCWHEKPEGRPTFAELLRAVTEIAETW

[11] = target: Bone morphogenetic protein receptor type-1B (Homo sapiens, UniProt O00238); experiment: Selectivity interaction (KinomeScan (DiscoverX)) EUB0001079a BMPR1B; conditions: at 1 µM
Bone morphogenetic protein receptor type-1B, sequence (O00238 whole entry): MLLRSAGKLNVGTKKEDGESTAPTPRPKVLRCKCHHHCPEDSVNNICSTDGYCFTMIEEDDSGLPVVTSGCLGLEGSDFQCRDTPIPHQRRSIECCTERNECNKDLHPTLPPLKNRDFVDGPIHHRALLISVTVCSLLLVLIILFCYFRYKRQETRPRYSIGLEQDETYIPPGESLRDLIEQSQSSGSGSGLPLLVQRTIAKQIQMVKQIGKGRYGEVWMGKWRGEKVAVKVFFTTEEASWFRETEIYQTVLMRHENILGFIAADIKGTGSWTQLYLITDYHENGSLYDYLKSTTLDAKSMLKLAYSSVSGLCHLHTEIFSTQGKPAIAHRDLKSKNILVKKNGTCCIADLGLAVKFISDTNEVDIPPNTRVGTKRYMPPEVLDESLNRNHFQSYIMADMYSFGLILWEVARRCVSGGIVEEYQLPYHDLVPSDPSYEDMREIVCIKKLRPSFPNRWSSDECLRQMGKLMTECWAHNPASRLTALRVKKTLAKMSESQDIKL

[12] = target: Serine/threonine-protein kinase 24 (Homo sapiens) (UniProt Q9Y6E0); conditions: at 10 µM
Serine/threonine-protein kinase 24 (Homo sapiens), sequence (Q9Y6E0 whole entry, looked up): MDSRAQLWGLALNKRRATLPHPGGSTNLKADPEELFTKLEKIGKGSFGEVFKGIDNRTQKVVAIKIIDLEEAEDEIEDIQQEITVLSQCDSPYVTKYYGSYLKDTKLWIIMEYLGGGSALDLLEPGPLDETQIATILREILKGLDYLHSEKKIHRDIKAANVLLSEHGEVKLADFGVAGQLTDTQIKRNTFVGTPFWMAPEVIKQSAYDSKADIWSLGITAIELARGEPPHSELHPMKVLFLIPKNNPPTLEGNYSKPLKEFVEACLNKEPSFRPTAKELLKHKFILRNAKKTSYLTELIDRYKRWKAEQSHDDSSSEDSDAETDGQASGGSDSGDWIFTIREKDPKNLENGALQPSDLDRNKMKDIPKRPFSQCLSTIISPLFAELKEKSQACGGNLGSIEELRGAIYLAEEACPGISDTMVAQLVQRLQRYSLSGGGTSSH

[13] = target: T3, NUAK family SNF1-like kinase 1 (Homo sapiens) (UniProt O60285); experiment: Selectivity interaction (KinomeScan (DiscoverX)) EUB0001619a NUAK1; conditions: at 1 µM
T3 sequence (whole entry): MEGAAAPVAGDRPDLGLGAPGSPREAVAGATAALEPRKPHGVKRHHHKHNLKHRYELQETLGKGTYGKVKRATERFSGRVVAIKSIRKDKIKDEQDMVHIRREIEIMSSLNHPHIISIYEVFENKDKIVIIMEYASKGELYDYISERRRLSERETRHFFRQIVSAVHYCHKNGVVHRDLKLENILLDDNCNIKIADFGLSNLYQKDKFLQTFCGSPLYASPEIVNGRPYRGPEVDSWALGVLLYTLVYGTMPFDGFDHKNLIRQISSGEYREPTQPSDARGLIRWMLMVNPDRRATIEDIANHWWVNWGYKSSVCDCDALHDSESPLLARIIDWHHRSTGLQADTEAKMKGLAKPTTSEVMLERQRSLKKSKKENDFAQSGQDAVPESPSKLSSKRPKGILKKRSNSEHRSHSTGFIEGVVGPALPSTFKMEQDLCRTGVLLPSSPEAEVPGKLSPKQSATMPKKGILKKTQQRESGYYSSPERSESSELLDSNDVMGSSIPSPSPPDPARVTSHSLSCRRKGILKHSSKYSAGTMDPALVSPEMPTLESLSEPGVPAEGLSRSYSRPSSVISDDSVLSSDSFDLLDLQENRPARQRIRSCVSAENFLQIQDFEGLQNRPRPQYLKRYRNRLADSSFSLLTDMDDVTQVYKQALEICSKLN

% of inhibition [1]: 56.8%
SMILES: CC[C@@H](Nc1c(C#N)c(-c2ccc(-c3cccc(C)c3F)cc2)nc2cnccc12)C(=O)O [BAY-091]

SMILES: CNC(=O)Nc1ccc(-c2nc(N3CC4CCC(C3)O4)c3cnn(C4CCC5(CC4)OCCO5)c3n2)cc1
% of control [2]: 100% | % of control [3]: 12%

% of inhibition [4]: 5.29% | % of inhibition (Focal adhesion kinase 1): 3.3% | % of inhibition [5]: -21.8% | % of inhibition [6]: 0.6%
SMILES: CC[C@@H]1[C@H](F)C(=O)N[C@@H]1COc1nccc2cc(C(N)=O)c(OC)cc12 [ZIMLOVISERTIB]

SMILES: COCC(=O)NC/C=C/c1ccc2ncnc(Nc3ccc(Oc4ccc(C)nc4)c(C)c3)c2c1 [CP-724714]
% of control [7]: 100%

SMILES: CC(C)(O)[C@H](F)CN1Cc2cc(NC(=O)c3cnn4cccnc34)c(N3CCOCC3)cc2C1=O
dTM [8]: 0 K

SMILES: CN(C)CCOc1ccc(-c2nc(-c3ccncc3)c(-c3ccc4c(c3)CC/C4=N\O)[nH]2)cc1
% of control [9]: 100%

SMILES: Nc1cnc(N2CCc3cc(S(=O)(=O)Nc4c(F)cc(Cl)cc4F)cc(N4CCCC4=O)c32)nc1 [TP-020n]
% of control [10]: 83% | % of control [11]: 100%

SMILES: Cc1cc([C@@H](C)Nc2ccccc2C(=O)O)c2nc(N3CCOCC3)cc(=O)n2c1 [AZD-6482]
% of control [12]: 100%

SMILES: N#Cc1cccc(-c2c[nH]c3ncnc(N4CCOCC4)c23)c1
% of control [13]: 71%
